Where two headings read alike, the source gives them in different places.
Assays:
[1] = target: EGFR L858R/T790M (Homo sapiens, UniProt P00533, L858R/T790M); assay: Kinase inhibitory activity against EGFR bearing the L858R/T790M double mutation; assay type: biochemical; details: 10 μM ATP, read-out: IC50 for kinase inhibition, EGFR L858R T790M
How it was run: (§1)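 ATP was held at 10 μM while inhibition was measured across a 10-point series capped at 3 μM, single replicates.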

[2] = target: human EGFR (native sequence) (Homo sapiens, UniProt P00533); assay: Kinase inhibitory activity against human EGFR (native sequence); assay type: biochemical; details: 10 μM ATP, read-out: IC50 for kinase inhibition, EGFR
How it was run: as §1

[3] = tested on: BaF3 cells expressing wildtype EGFR; assay: Antiproliferative activity (MTT) against control BaF3 cells expressing wildtype EGFR; assay type: cell-based; details: Mus musculus
How it was run: (§2)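 Compounds were tested on BaF3 cells bearing target EGFR mutations and on control BaF3 cells with wildtype EGFR; viability was then determined by MTT.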

[4] = target: T1, BaF3 cells expressing the target EGFR mutations (Homo sapiens, UniProt P00533, T790M/L858R, cells depend on it); assay: Antiproliferative activity (MTT) against BaF3 cells expressing the target EGFR mutations; assay type: cell-based; details: BAF3 EGFR L858R-T790M PURO POOL cells, read-out: IC50, BAF3 EGFR L858R-T790M PURO POOL
T1 construct: IC50, BAF3 EGFR L858R-T790M PURO POOL; other: BAF3 EGFR L858R-T790M PURO POOL cells, MTT; IC50, BAF3 EGFR L858R-T790M PURO POOL; other: BAF3 EGFR L858R-T790M PURO POOL cells; MTT
How it was run: as §2

[5] = target: T2, BaF3 cells expressing the target EGFR mutations (Homo sapiens, UniProt P00533, T790M, cells depend on it, form not given); assay: as above; assay type: cell-based; details: BAF3 EGFR DEL T790M PURO POOL cells, read-out: IC50, BAF3 EGFR DEL T790M PURO POOL
T2 construct: IC50, BAF3 EGFR DEL T790M PURO POOL; other: BAF3 EGFR DEL T790M PURO POOL cells, MTT; other: BAF3 EGFR DEL T790M PURO POOL cells; MTT
How it was run: as §2

[6] = target: EGFR L858R (Homo sapiens, UniProt P00533, L858R); assay: Kinase inhibitory activity against EGFR bearing the L858R mutation; assay type: biochemical; details: 10 μM ATP, read-out: IC50 for kinase inhibition, EGFR L858R
How it was run: as §1

[7] = EGFR L858R/T790M double mutation
[8] = 10 pt curves, 3 μM top concentration

T1 sequence (P00533 whole entry T790M/L858R): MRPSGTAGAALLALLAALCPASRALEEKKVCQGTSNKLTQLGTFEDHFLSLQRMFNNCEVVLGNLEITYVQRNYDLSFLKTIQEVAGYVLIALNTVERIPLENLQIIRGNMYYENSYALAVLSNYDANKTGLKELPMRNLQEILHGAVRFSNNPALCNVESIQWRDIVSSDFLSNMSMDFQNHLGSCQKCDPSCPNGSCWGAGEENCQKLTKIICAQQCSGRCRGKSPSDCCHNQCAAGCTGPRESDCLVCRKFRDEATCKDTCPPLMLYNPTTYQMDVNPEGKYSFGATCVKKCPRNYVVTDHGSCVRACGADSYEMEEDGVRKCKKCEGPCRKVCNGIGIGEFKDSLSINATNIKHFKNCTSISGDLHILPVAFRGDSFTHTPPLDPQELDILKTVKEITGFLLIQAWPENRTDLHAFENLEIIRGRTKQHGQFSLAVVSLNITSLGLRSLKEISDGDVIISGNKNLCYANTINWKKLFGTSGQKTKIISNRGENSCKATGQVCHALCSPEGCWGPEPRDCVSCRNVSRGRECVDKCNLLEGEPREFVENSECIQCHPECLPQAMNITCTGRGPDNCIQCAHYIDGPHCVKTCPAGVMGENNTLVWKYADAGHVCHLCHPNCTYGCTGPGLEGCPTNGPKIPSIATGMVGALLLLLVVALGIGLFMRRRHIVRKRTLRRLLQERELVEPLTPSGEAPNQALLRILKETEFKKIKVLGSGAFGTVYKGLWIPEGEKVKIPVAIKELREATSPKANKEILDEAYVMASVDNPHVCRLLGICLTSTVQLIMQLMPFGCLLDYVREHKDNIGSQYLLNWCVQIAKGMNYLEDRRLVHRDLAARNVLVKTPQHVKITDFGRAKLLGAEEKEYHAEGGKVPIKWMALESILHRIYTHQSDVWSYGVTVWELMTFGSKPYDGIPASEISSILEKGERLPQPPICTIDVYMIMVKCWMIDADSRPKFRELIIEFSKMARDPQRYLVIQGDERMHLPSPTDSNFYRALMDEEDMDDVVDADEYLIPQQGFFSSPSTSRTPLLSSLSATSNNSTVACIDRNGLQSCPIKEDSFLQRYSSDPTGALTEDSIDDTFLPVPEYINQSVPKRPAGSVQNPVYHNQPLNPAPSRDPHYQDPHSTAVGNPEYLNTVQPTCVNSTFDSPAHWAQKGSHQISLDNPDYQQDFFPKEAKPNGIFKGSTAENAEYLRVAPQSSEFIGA
Chain of EGFR L858R/T790M (P00533 25-1210 T790M/L858R): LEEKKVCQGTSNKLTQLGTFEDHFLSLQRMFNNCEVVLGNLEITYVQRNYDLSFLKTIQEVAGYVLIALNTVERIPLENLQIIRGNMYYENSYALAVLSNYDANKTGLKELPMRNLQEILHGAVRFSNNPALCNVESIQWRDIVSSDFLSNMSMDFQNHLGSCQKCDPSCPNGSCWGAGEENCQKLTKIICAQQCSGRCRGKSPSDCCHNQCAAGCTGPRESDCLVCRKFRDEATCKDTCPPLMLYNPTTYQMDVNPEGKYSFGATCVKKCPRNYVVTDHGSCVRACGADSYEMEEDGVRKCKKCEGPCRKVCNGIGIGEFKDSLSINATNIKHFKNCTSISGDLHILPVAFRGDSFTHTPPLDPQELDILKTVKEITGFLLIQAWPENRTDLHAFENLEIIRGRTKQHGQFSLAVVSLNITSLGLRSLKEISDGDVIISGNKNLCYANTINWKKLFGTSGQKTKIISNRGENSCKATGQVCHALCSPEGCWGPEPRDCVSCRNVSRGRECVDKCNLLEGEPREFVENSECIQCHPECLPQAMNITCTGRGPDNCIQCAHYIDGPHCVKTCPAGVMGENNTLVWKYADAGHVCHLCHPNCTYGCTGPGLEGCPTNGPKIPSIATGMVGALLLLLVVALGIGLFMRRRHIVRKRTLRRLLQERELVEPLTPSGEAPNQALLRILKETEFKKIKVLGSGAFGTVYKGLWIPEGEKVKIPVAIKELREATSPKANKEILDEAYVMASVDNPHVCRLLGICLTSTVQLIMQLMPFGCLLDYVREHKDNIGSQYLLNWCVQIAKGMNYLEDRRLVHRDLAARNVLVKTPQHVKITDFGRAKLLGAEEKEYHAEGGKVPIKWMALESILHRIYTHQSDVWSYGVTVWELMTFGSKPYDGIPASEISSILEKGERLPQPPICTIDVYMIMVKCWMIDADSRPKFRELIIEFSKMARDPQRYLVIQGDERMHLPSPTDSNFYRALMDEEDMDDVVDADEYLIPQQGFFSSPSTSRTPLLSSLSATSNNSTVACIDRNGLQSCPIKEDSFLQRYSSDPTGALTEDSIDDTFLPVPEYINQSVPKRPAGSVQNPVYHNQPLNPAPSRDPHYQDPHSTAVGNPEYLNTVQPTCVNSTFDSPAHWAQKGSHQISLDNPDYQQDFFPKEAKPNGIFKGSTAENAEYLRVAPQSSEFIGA
Chain of human EGFR (native sequence) (P00533 25-1210): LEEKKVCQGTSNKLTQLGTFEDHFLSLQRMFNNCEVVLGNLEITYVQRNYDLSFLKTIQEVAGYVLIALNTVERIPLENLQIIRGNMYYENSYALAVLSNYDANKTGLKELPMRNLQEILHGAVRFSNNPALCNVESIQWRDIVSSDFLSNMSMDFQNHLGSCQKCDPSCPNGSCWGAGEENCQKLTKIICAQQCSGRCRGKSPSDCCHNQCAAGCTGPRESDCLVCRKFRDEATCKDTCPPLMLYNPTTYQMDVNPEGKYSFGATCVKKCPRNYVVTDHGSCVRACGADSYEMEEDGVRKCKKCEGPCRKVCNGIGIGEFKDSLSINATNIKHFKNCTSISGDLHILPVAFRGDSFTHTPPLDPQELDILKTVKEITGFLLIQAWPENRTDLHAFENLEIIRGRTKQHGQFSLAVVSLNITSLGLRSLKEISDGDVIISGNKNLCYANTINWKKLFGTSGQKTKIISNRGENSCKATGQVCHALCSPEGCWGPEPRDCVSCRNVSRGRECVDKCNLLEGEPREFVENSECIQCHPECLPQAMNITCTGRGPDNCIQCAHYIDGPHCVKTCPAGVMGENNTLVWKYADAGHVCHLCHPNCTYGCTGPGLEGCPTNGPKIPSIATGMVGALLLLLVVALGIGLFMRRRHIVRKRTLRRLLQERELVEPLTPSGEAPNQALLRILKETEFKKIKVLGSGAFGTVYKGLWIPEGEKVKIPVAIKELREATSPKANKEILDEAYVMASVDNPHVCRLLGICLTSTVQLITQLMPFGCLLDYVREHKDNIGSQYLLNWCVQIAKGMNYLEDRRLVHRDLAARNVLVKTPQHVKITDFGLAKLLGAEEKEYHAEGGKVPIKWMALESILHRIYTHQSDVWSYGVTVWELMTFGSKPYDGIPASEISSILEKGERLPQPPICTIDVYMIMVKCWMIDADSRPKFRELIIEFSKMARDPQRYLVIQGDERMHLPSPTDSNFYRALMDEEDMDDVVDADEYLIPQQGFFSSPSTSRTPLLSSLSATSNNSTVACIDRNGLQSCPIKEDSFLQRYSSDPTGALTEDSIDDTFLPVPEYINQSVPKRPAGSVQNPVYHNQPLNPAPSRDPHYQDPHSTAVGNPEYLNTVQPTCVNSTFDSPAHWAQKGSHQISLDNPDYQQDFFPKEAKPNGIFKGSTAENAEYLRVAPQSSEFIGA
T2 sequence (P00533 with tags, fused parts or gaps DEL746-750/T790M, form open): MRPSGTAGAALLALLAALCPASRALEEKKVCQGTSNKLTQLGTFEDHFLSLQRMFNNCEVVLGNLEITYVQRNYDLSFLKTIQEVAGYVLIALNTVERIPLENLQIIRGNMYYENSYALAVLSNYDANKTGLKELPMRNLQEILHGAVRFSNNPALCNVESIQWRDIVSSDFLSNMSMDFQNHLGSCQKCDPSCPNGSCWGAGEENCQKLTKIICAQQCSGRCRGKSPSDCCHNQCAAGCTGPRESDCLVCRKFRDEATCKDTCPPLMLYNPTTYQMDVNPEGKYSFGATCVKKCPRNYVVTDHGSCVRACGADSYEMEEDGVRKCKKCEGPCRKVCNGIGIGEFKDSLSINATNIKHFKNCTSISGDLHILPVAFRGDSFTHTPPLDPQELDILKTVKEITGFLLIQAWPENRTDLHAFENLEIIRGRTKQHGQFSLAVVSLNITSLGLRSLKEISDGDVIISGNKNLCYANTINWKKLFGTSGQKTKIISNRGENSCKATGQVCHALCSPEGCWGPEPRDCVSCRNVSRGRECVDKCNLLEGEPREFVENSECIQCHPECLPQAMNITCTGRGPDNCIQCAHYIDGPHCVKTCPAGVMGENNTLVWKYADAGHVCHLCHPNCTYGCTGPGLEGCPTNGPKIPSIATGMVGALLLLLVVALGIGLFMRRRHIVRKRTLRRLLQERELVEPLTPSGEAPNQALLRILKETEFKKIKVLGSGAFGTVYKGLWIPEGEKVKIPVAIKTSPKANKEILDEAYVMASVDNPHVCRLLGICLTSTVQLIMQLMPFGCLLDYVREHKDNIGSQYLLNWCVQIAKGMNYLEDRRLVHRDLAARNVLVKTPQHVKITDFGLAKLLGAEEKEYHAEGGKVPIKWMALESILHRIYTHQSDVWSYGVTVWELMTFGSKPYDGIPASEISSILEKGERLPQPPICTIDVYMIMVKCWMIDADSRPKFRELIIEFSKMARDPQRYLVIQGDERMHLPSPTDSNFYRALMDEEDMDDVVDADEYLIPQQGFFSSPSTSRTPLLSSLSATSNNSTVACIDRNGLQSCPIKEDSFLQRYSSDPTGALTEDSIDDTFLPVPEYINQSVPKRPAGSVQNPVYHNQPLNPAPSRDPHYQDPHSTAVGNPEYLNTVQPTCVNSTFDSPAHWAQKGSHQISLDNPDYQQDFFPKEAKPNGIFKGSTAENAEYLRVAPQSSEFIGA

| Structure (SMILES) | IC50 [1, 7] [nM] | IC50 ([2]; human EGFR native sequence) [nM] | IC50 ([3]; BAF3 PARENTAL cells (control)) [nM] | GI50 [4] [nM] | GI50 [5] [nM] | IC50 ([6]; EGFR L858R) [nM] | IC50 [1, 8] [nM] | IC50 [2, 8] [nM] | IC50 ([3]; BAF3 parental cells) [nM] | IC50 [6, 8] [nM] |
| --- | --- | --- | --- | --- | --- | --- | --- | --- | --- | --- |
| C=CC(=O)Nc1ccc(OC)c(Nc2ncc(Cl)c(Nc3ccc(OC4CCOC4)cc3P(C)(C)=O)n2)c1 (stereo not drawn) [Example 99, N-(3-((5-chloro-4-((2-(dimethylphosphoryl)-4-((tetrahydrofuran-3-yl)oxy)phenyl)amino)pyrimidin-2-yl)amino)-4-methoxyphenyl)acrylamide] | < 50 | < 50 | ≥ 250 | 50 to 100 | < 50 | < 50 | – | – | – | – |
| C=CC(=O)Nc1ccc(OC)c(Nc2ncc(Cl)c(Nc3ccc(OCC4CCOCC4)cc3P(C)(C)=O)n2)c1 [Example 100, N-(3-((5-chloro-4-((2-(dimethylphosphoryl)-4-((tetrahydro-2H-pyran-4-yl)methoxy)phenyl)amino)pyrimidin-2-yl)amino)-4-methoxyphenyl)acrylamide] | < 50 | 50 to 100 | ≥ 250 | < 50 | < 50 | < 50 | – | – | – | – |
| COc1cc(N2CCOCC2)c(NC(=O)C#CCCN2CCCCC2)cc1Nc1ncc(Cl)c(Nc2ccccc2P(C)(C)=O)n1 [Example 101, N-(5-((5-chloro-4-((2-(dimethylphosphoryl)phenyl)amino)pyrimidin-2-yl)amino)-4-methoxy-2-morpholinophenyl)-5-(piperidin-1-yl)pent-2-ynamide] | < 50 | < 50 | ≥ 250 | < 50 | < 50 | < 50 | – | – | – | – |
| CC#CC(=O)Nc1cc(Nc2ncc(Cl)c(Nc3ccccc3P(C)(C)=O)n2)c(OC)cc1OCC1CCOCC1 [Example 102, N-(5-((5-chloro-4-((2-(dimethylphosphoryl)phenyl)amino)pyrimidin-2-yl)amino)-4-methoxy-2-((tetrahydro-2H-pyran-4-yl)methoxy)phenyl)but-2-ynamide] | ≥ 250 | ≥ 250 | ≥ 250 | 50 to 100 | < 50 | 101 to 250 | – | – | – | – |
| CC#CC(=O)Nc1cc(Nc2ncc(Cl)c(Nc3ccccc3P(C)(C)=O)n2)c(OC)cc1OC1COC1 [Example 103, N-(5-((5-chloro-4-((2-(dimethylphosphoryl)phenyl)amino)pyrimidin-2-yl)amino)-4-methoxy-2-(oxetan-3-yloxy)phenyl)but-2-ynamide] | – | – | – | 50 to 100 | < 50 | – | 50 to 100 | ≥ 250 | ≥ 250 | < 50 |
| COc1cc(N2CCOCC2)c(NC(=O)C#CCN(C)C)cc1Nc1ncc(Cl)c(Nc2ccccc2P(C)(C)=O)n1 [Example 104, N-(5-((5-chloro-4-((2-(dimethylphosphoryl)phenyl)amino)pyrimidin-2-yl)amino)-4-methoxy-2-morpholinophenyl)-4-(dimethylamino)but-2-ynamide] | – | – | – | < 50 | < 50 | – | < 50 | < 50 | ≥ 250 | < 50 |
| COCC#CC(=O)Nc1cc(Nc2ncc(Cl)c(Nc3ccccc3P(C)(C)=O)n2)c(OC)cc1N1CCOCC1 [Example 105, N-(5-((5-chloro-4-((2-(dimethylphosphoryl)phenyl)amino)pyrimidin-2-yl)amino)-4-methoxy-2-morpholinophenyl)-4-methoxybut-2-ynamide] | – | – | – | < 50 | < 50 | – | < 50 | < 50 | ≥ 250 | < 50 |
| CC#CC(=O)Nc1cc(Nc2ncc(Cl)c(Nc3ccccc3P(C)(C)=O)n2)c(OC)cc1N1CCC(N2CCN(C)CC2)CC1 [Example 106, N-(5-((5-chloro-4-((2-(dimethylphosphoryl)phenyl)amino)pyrimidin-2-yl)amino)-4-methoxy-2-(4-(4-methylpiperazin-1-yl)piperidin-1-yl)phenyl)but-2-ynamide] | – | – | – | < 50 | < 50 | – | < 50 | 50 to 100 | ≥ 250 | < 50 |
| C=CC(=O)Nc1ccc(Nc2ncc(Cl)c(Nc3cccc(OCCN4CCCCC4)c3P(C)(C)=O)n2)c(OC)c1 [Example 107, N-(4-((5-chloro-4-((2-(dimethylphosphoryl)-3-(2-(piperidin-1-yl)ethoxy)phenyl)amino)pyrimidin-2-yl)amino)-3-methoxyphenyl)acrylamide] | – | – | – | 101 to 250 | < 50 | – | < 50 | 101 to 250 | ≥ 250 | < 50 |
